Test results: patent US20040185457A1, “Method for detecting dna polymerisation” (priority 2001, published 2004)

How the values were obtained:
Assay type in all cases: biochemical
[1] = target: T1, Photinus pyralis luciferase (Photinus pyralis, UniProt P08659); assay: Bioluminescence of nucleotides with firefly luciferase in pyrophosphate assay buffer (ELIDA reagent); conditions: for wavelength of maximal light emission: pH 7.8
T1 construct: purchased Promega
Description: Pyrophosphate assay buffer (PAB) was made up as follows:
50 μl of PAB was aliquoted into two wells of a 96 well plate. To one sample was added 1 μl of 0.1 mM sodium pyrophosphate; to the other was added 1 μl of 2 mM dATP. The resulting light emission was observed using a Syngene light-box with a black and white CCD camera integrating the signal over 5 seconds. […] The amount of dATP added is equivalent to ⅕ the amount used in a standard 50 μl PCR reaction.
A green filter was placed in front of the lens of the CCD camera and the sample above was observed once more.

luciferase [2] = target: T2, luciferase (Photinus pyralis, UniProt P08659); assay: Signal:background ratio in ELIDA assays of PCR reactions; conditions: unreacted PCR mix vs 30 cycles, compared to dATP
Description: PCR reactions were set up as in Example 2 except that only 0.5 pg of the test plasmid pPw601 a was used. Further, the PCR reactions contained either d-α-SATP or dATP. The light emission from an ELIDA assay of unreacted PCR mixes containing either d-α-SATP or dATP was measured as in Example 6. A further ELIDA assay was performed on the same samples after they had completed 30 cycles of a PCR reaction (and had produced the same amount of amplicon as judged by agarose gel analysis). The ratio of the light emission from the unreacted PCR mix to the reacted PCR mix is shown in FIG. 3 (showing signal:background ratio).

luciferase [3] = target: T2, luciferase; assay: Stability of light emission from ELIDA assays of PCR reactions; conditions: four consecutive readings over 1 minute; for light emission over time: 5 and 35 cycle PCR samples
Description: PCR reactions were set up and run as in Example 5. The analysis of each PCR sample was initiated by mixing 1 μl of the PCR reaction with 20 μl of ELIDA assay buffer. The light emitted from the sample was then measured with a Labsystems Luminoscan Ascent luminometer in a series of four consecutive light readings over a period of 1 minute. Each light reading represented the light emission from the sample integrated over a ten-second interval (using the machine's default PMT voltage).
This effect becomes greater with the number of PCR cycles. […] As a result, the magnitude of the differential between the readings for 5 and 35 cycles over the four readings taken, is almost constant (only 5% difference).

Taq polymerase = target: T3, Taq polymerase (Thermus aquaticus, UniProt P19821); assay: PCR using the dATP analogue, product seen by agarose gel electrophoresis
T3 construct: purchased Roche
Description: A 50 μl PCR reaction contained the following:
The sequences of primers 1 and 2 and the test plasmid are given in SEQ ID Nos. 1, 2 and 3, respectively. The size of the expected PCR product was 158 bp.
Taq polymerase was added to the sample after heating to 95° for 30 seconds. The following cycling parameters were implemented on a Perkin-Elmer GeneAmp PCR system 2400.
10 μl of the resulting PCR reaction was loaded onto a […] containing ethidium bromide alongside a molecular weight marker. The gel was run at 60V for 50 minutes and then visualised under a transilluminator.

T1 sequence (P08659 whole entry): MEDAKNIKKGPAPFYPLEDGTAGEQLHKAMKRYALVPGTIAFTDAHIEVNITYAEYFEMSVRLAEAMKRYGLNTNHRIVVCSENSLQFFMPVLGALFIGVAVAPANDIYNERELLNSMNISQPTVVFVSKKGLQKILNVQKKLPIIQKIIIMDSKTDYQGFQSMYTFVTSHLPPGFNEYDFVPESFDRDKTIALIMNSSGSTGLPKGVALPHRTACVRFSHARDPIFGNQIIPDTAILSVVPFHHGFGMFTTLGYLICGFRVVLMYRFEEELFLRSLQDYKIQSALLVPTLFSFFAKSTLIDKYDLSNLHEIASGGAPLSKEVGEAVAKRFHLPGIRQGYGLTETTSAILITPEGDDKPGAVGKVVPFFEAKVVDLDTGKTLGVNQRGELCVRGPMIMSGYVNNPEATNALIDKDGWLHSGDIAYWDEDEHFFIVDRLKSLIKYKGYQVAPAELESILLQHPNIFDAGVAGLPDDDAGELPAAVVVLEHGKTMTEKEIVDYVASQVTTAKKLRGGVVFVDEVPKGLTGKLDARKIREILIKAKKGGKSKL
T2 sequence (P08659 whole entry): as above
T3 sequence (P19821 whole entry): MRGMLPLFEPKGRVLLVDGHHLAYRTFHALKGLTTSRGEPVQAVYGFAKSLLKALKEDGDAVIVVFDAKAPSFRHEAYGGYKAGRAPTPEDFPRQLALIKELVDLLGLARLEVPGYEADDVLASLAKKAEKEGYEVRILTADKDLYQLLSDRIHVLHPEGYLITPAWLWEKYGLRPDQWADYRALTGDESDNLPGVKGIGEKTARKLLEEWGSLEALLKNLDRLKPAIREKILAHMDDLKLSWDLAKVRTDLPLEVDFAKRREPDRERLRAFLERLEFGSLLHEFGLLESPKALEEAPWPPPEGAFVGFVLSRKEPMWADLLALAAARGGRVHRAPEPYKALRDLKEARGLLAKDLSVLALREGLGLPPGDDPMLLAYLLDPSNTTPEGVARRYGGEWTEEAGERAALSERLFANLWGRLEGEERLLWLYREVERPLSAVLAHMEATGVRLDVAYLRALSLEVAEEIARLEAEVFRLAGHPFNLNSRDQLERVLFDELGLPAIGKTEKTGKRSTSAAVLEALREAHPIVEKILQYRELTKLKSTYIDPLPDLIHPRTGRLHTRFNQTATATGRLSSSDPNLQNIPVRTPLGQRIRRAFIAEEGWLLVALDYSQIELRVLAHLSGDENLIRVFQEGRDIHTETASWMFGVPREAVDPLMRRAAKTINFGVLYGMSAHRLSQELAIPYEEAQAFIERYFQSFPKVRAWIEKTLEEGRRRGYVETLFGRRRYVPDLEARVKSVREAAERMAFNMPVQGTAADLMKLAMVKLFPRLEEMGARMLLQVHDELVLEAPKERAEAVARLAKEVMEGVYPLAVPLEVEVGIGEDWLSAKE

Row | Compound | wavelength of maximal light emission [1] [nm] | signal:background ratio (luciferase [2]) | difference in the differential between the readings for 5 and 35 cycles over the four readings (luciferase [3]) [%] | light emission over time (luciferase [3]) | substrate quality for luciferase relative to dATP ([1]; direct reaction with luciferase) | PCR product generated (gel) (Taq polymerase; used instead of dATP, 30 cycles) | light emission on addition to pyrophosphate assay buffer ([1]; 1 μl of 2 mM in 50 μl PAB, CCD camera, 5 seconds) | PCR product generated (gel) (Taq polymerase; 1/10th the usual concentration of 0.2 mM)
1 | Nc1ncnc2c1ncn2[C@@H]1O[C@H](COP(=O)(O)OP(=O)(O)OP(=O)(O)O)[C@@H](O)[C@H]1O [ATP] | 550 | – | – | – | – | – | – | –
2 | Nc1ncnc2c1ncn2[C@H]1C[C@H](O)[C@@H](COP(O)(=S)OP(=O)(O)OP(=O)(O)O)O1 (stereo partly drawn) [d-α-SATP] | – | considerably improves the signal:background ratio | 5 | close to constant | approximately one-hundred-fold poorer substrate for luciferase than dATP | a PCR product is generated | – | –
3 | Nc1ncnc2c1ncn2[C@H]1C[C@H](O)[C@@H](COP(=O)(O)OP(=O)(O)OP(=O)(O)O)O1 [dATP] | 620 | – | – | significant decay in light emission over time | – | – | significant light emission | no PCR product is detected
